This passage reports Efflux ratio results from patent US10544130B2, “Metallo-beta-lactamase inhibitors” (priority 2015, dated 2020).

The structures appear in SMILES notation.

The data set deals with Pseudomonas aeruginosa PAO1 MB9798 (efflux+, IMP-1). The note with it: ratio MITC95 PA 9798/MITC95 PA 9799; imipenem at 2 μg/mL. The text has this:
The strain background was Pseudomonas aeruginosa PAO1.
The strain set was then used as a pair to determine the effect of metallo-β-lactamase inhibitors of Formula I on the MIC of imipenem and/or ceftazidime. A fixed concentration of antibiotic was included in standard microbroth MIC tests, usually at the CLSI (Clinical and Laboratory Standards Institute) breakpoint concentration. A fixed amount of a class A/C beta-lactamase inhibitor was also included to inhibit the resident Pseudomonas AmpC enzyme. A serial titration of the metallo-β-lactamase inhibitor was included and the concentration of metallo-β-lactamase inhibitor which restores susceptibility of the strain to the included antibiotic was recorded. That concentration of metallo-β-lactamase inhibitor was then compared between the two strains to determine the fold difference between the efflux + (MB9798) and efflux − (MB9799) strains. This was taken as an indication of the extent to which the MBLi is subject to efflux.
Take `CNCCNS(=O)(=O)c1ccc(-c2cccc3sc(N)nc23)c(-c2nnn[nH]2)c1S(N)(=O)=O` [Example 31, 4-(2-amino-1,3-benzothiazol-4-yl)-N^1-[2-(methylamino)ethyl]-3-(1H-tetrazol-5-yl)benzene-1,2-disulfonamide]: the Efflux ratio amounted to 1.50.

On to `Nc1nc2c(-c3ccc(S(=O)(=O)NC4CCNCC4)c(S(N)(=O)=O)c3-c3nnn[nH]3)cccc2s1` [Example 32, 4-(2-amino-1,3-benzothiazol-4-yl)-N1-piperidin-4-yl-3-(1H-tetrazol-5-yl)benzene-1,2-disulfonamide], for which the Efflux ratio is 0.50.

As for `COc1ccnc(CNS(=O)(=O)c2ccc(-c3cccc4sc(N)nc34)c(-c3nnn[nH]3)c2S(N)(=O)=O)n1` [Example 34, 4-(2-amino-1,3-benzothiazol-4-yl)-N1-[(4-methoxypyrimidin-2-yl)methyl]-3-(1H-tetrazol-5-yl)benzene-1,2-disulfonamide], the Efflux ratio is on record as 4.00. Under `Nc1nc2c(-c3ccc(S(=O)(=O)NC4CCc5nccn5C4)c(S(N)(=O)=O)c3-c3nnn[nH]3)cccc2s1` (stereo not drawn) [Example 35, 4-(2-amino-1,3-benzothiazol-4-yl)-N1-(5,6,7,8-tetrahydroimidazo[1,2-a]pyridin-6-yl)-3-(1H-tetrazol-5-yl)benzene-1,2-disulfonamide] stands 2.00; under `CN(C)C(=O)CNS(=O)(=O)c1ccc(-c2cccc3sc(N)nc23)c(-c2nnn[nH]2)c1S(N)(=O)=O` [Example 36, N^2-{[4-(2-amino-1,3-benzothiazol-4-yl)-2-sulfamoyl-3-(1H-tetrazol-5-yl)phenyl]sulfonyl}-N,N-dimethylglycinamide], 1.00; under `Nc1nc2c(-c3ccc(S(=O)(=O)NCC4(CO)CC4)c(S(N)(=O)=O)c3-c3nnn[nH]3)cccc2s1` [Example 37, 4-(2-amino-1,3-benzothiazol-4-yl)-N1-{[1-(hydroxymethyl)cyclopropyl]methyl}-3-(1H-tetrazol-5-yl)benzene-1,2-disulfonamide], 1.00.

Consider `CN1CC2(CCN(S(=O)(=O)c3ccc(-c4cccc5sc(N)nc45)c(-c4nnn[nH]4)c3S(N)(=O)=O)C2)C1` [Example 38, 3-(2-amino-1,3-benzothiazol-4-yl)-6-[(2-methyl-2,6-diazaspiro[3.4]oct-6-yl)sulfonyl]-2-(1H-tetrazol-5-yl)benzenesulfonamide], for which the Efflux ratio was found to be 1.00. Regarding `CN(C)C1CN(S(=O)(=O)c2ccc(-c3cccc4sc(N)nc34)c(-c3nnn[nH]3)c2S(N)(=O)=O)C1` [Example 39, 3-(2-amino-1,3-benzothiazol-4-yl)-6-{[3-(dimethylamino)azetidin-l-yl]sulfonyl}-2-(1H-tetrazol-5-yl)benzenesulfonamide], the Efflux ratio came out at 16.00. Regarding `Nc1nc2c(-c3ccc(S(=O)(=O)N4CC5CC4CS5(=O)=O)c(S(N)(=O)=O)c3-c3nnn[nH]3)cccc2s1` (stereo not drawn) [Example 40, 3-(2-amino-1,3-benzothiazol-4-yl)-6-[(2,2-dioxido-2-thia-5-azabicyclo[2.2.1]hept-5-yl)sulfonyl]-2-(1H-tetrazol-5-yl)benzenesulfonamide], the Efflux ratio is 16.00. With `CN(C1CCS(=O)(=O)C1)S(=O)(=O)c1ccc(-c2cccc3sc(N)nc23)c(-c2nnn[nH]2)c1S(N)(=O)=O` (stereo not drawn) [Example 41, 4-(2-amino-1,3-benzothiazol-4-yl)-N^1-(1,1-dioxidotetrahydrothiophen-3-yl)-N~1~-methyl-3-(1H-tetrazol-5-yl)benzene-1,2-disulfonamide], the Efflux ratio is recorded as 8.00. As for `Nc1nc2c(-c3ccc(S(=O)(=O)N4CC[S+]([O-])CC4)c(S(N)(=O)=O)c3-c3nnn[nH]3)cccc2s1` [Example 44, 3-(2-amino-1,3-benzothiazol-4-yl)-6-[(1-oxidothiomorpholin-4-yl)sulfonyl]-2-(1H-tetrazol-5-yl)benzenesulfonamide], the Efflux ratio was 2.00. Take `Nc1nc2c(-c3ccc(S(=O)(=O)NCC4(F)CNC4)c(S(N)(=O)=O)c3-c3nnn[nH]3)cccc2s1` [Example 46, 4-(2-amino-1,3-benzothiazol-4-yl)-N^1-[(3-fluoroazetidin-3-yl)methyl]-3-(1H-tetrazol-5-yl)benzene-1,2-disulfonamide]: the Efflux ratio is 0.50. On to `NCC(F)(F)CNS(=O)(=O)c1ccc(-c2cccc3sc(N)nc23)c(-c2nnn[nH]2)c1S(N)(=O)=O` [Example 47, 4-(2-amino-1,3-benzothiazol-4-yl)-N1-(3-amino-2,2-difluoropropyl)-3-(1H-tetrazol-5-yl)benzene-1,2-disulfonamide], for which the Efflux ratio was 1.00. `Nc1nc2c(-c3ccc(S(=O)(=O)N4CC5(CCNC5)C4)c(S(N)(=O)=O)c3-c3nnn[nH]3)cccc2s1` [Example 48, 3-(2-amino-1,3-benzothiazol-4-yl)-6-(2,6-diazaspiro[3.4]oct-2-ylsulfonyl)-2-(1H-tetrazol-5-yl)benzenesulfonamide]: the Efflux ratio amounted to 1.00. Consider `Nc1nc2c(-c3ccc(S(=O)(=O)NCCC(N)C(F)(F)F)c(S(N)(=O)=O)c3-c3nnn[nH]3)cccc2s1` (stereo not drawn) [Example 49, 4-(2-amino-1,3-benzothiazol-4-yl)-N1-(3-amino-4,4,4-trifluorobutyl)-3-(1H-tetrazol-5-yl)benzene-1,2-disulfonamide], for which the Efflux ratio is 8.00. For the molecule `Nc1nc2c(-c3ccc(S(=O)(=O)N[C@H]4CO[C@H]5[C@H]4OC[C@H]5O)c(S(N)(=O)=O)c3-c3nnn[nH]3)cccc2s1` [Example 50, 2-({[4-(2-amino-1,3-benzothiazol-4-yl)-2-sulfamoyl-3-(1H-tetrazol-5-yl)phenyl]sulfonyl}amino)-1,4:3,6-dianhydro-2-deoxy-D-allitol], the Efflux ratio was 2.00. Take `CC(CN1CCOCC1)NS(=O)(=O)c1ccc(-c2cccc3sc(N)nc23)c(-c2nnn[nH]2)c1S(N)(=O)=O` (stereo not drawn) [Example 51, 4-(2-amino-1,3-benzothiazol-4-yl)-N1-(1-methyl-2-morpholin-4-ylethyl)-3-(1H-tetrazol-5-yl)benzene-1,2-disulfonamide]: the Efflux ratio stood at 4.00. On to `CN(C)CCCN(C)S(=O)(=O)c1ccc(-c2cccc3sc(N)nc23)c(-c2nnn[nH]2)c1S(N)(=O)=O` [Example 52, 4-(2-amino-1,3-benzothiazol-4-yl)-N1-[3-(dimethylamino)propyl]-N~1~-methyl-3-(1H-tetrazol-5-yl)benzene-1,2-disulfonamide], for which the Efflux ratio came out at 2.00. For the molecule `CN1CCC(NS(=O)(=O)c2ccc(-c3cccc4sc(N)nc34)c(-c3nnn[nH]3)c2S(N)(=O)=O)C1` (stereo not drawn) [Example 53, 4-(2-amino-1,3-benzothiazol-4-yl)-N1-(1-methylpyrrolidin-3-yl)-3-(1H-tetrazol-5-yl)benzene-1,2-disulfonamide], the Efflux ratio is recorded as 1.00. For `CN1CCC(N(C)S(=O)(=O)c2ccc(-c3cccc4sc(N)nc34)c(-c3nnn[nH]3)c2S(N)(=O)=O)C1` (stereo not drawn) [Example 54, 4-(2-amino-1,3-benzothiazol-4-yl)-N1-methyl-N^1-(1-methylpyrrolidin-3-yl)-3-(1H-tetrazol-5-yl)benzene-1,2-disulfonamide], the Efflux ratio stood at 2.00. Under `Nc1nc2c(-c3ccc(S(=O)(=O)N4CCC(N)(CO)C4)c(S(N)(=O)=O)c3-c3nnn[nH]3)cccc2s1` (stereo not drawn) [Example 55, 3-(2-amino-1,3-benzothiazol-4-yl)-6-{[3-amino-3-(hydroxymethyl)pyrrolidin-1-yl]sulfonyl}-2-(1H-tetrazol-5-yl)benzenesulfonamide] stands 1.00; under `CCC1(NS(=O)(=O)c2ccc(-c3cccc4sc(N)nc34)c(-c3nnn[nH]3)c2S(N)(=O)=O)CCNC1` (stereo not drawn) [Example 56, 4-(2-amino-1,3-benzothiazol-4-yl)-N1-(3-ethylpyrrolidin-3-yl)-3-(1H-tetrazol-5-yl)benzene-1,2-disulfonamide], 1.00. Take `CC1(NS(=O)(=O)c2ccc(-c3cccc4sc(N)nc34)c(-c3nnn[nH]3)c2S(N)(=O)=O)CCCNC1` (stereo not drawn) [Example 57, 4-(2-amino-1,3-benzothiazol-4-yl)-N1-(3-methylpiperidin-3-yl)-3-(1H-tetrazol-5-yl)benzene-1,2-disulfonamide]: the Efflux ratio was 1.00.

With `Nc1nc2c(-c3ccc(S(=O)(=O)N[C@@H]4CNC[C@@H]4F)c(S(N)(=O)=O)c3-c3nnn[nH]3)cccc2s1` [Example 58, 4-(2-amino-1,3-benzothiazol-4-yl)-N1-[(3R,4S)-4-fluoropyrrolidin-3-yl]-3-(1H-tetrazol-5-yl)benzene-1,2-disulfonamide], the Efflux ratio is 1.00. On to `Nc1nc2c(-c3ccc(S(=O)(=O)N[C@H]4CNC[C@@H]4F)c(S(N)(=O)=O)c3-c3nnn[nH]3)cccc2s1` [Example 59, 4-(2-amino-1,3-benzothiazol-4-yl)-N1-[(3S,4S)-4-fluoropyrrolidin-3-yl]-3-(1H-tetrazol-5-yl)benzene-1,2-disulfonamide], for which the Efflux ratio worked out at 1.00. Turning to `Nc1nc2c(-c3ccc(S(=O)(=O)N[C@H]4CCNC4)c(S(N)(=O)=O)c3-c3nnn[nH]3)cccc2s1` [Example 60, 4-(2-amino-1,3-benzothiazol-4-yl)-N1-[(3S)-pyrrolidin-3-yl]-3-(1H-tetrazol-5-yl)benzene-1,2-disulfonamide], the Efflux ratio is reported as 0.50. As to `Nc1nc2c(-c3ccc(S(=O)(=O)N4CC[C@H](N)C4)c(S(N)(=O)=O)c3-c3nnn[nH]3)cccc2s1` [Example 61, 3-(2-amino-1,3-benzothiazol-4-yl)-6-{[(3S)-3-aminopyrrolidin-1-yl]sulfonyl}-2-(1H-tetrazol-5-yl)benzenesulfonamide], the Efflux ratio is recorded as 1.00.
